Patent publication US11479551B2, “MTA-cooperative PRMT5 inhibitors” (Mirati Therapeutics, Inc., priority 2019, dated 2022)
Read-outs that look alike come from different tables or passages of the source.

Experiments:
[1] = test system: HCT116 homozygous MTAP knockout cells; assay: Proliferation assay (CellTiter-Glo, 10 days of treatment), HCT116 MTAP knockout; format: cell-based; conditions: read-out: Proliferation HCT116MTAP_KO IC50
Experimental: (§1) 1. HCT116 MTAP Knockout Model
(§2) HCT116 cells were genetically engineered to knock out the function of both MTAP alleles using a CRISPR/Cas9 system and an sgRNA targeting the MTAP gene. Following Cas9/MTAP sgRNA transduction, clones were screened to confirm that each allele of the MTAP gene had been inactivated (i.e., homozygous MTAP knock out) creating an MTAP-deficient cell.
(§3) Control samples were analyzed in parallel.
Briefly, on Day 0, 250 HCT116 parental or HCT116 homozygous MTAP knockout cell were seeded in 96 well plates in McCoy's 5A supplemented with 10% fetal bovine serum and pen/strep and the cells were incubated overnight at 37° C. plus 5% CO2.
The following day, cells were treated with DMSO vehicle control or a dose response of PRMT5 inhibitors and incubated at 37 C plus 5% CO2 for five days. On Day 6, the cells were trypsinized and split 1:10 into new 96-well plates with fresh medium containing the same concentration of PRMT5 inhibitor and incubated for an additional 5 days at 37° C. plus 5% CO^2.
On Day 11, the viability of the cells was measured using a CTG assay kit (CellTiter-Glo; Promega cat.no G7573) in accordance with the manufacturer's instructions. The IC50 values for each compound after 10 days of treatment were calculated using GraphPad PRISM software.

[2] = test system: PRMT5-dependent Symmetric Di-methyl Arginine signal in HCT116 homozygous MTAP knockout cells; assay: SYM11 In-Cell Western, HCT116 MTAP knockout; format: cell-based
Experimental: as §1, §2, §3
Briefly, on Day 0, 2,000 HCT116 parental or HCT116 homozygous MTAP knockout cells were seeded in 96 well plates in McCoy's 5A supplemented with 10% fetal bovine serum and pen/strep and the cells were incubated overnight at 37° C. plus 5% CO2. The following day, cells were treated with DMSO vehicle control or a dose response of PRMT5 inhibitors, and incubated at 37° C. plus 5% CO^2 for four days.
After 4 days of treatment, the cells were fixed by adding 50 μl of 4% paraformaldehyde solution to each well and the cells were incubated for 20 min at room temperature. The paraformaldehyde solution was removed, 150 μl of ice-cold methanol was added and the plate was placed −20° C. for 10 minutes. The methanol was removed, 150 μl of Odyssey Blocking buffer+0.05% Tween20 was added and the plate was incubated at room temperature with shaking for one hour.
The primary SYM11 antibody solution was removed by aspiration and the wells were washed three consecutive times with phosphate buffered saline containing 0.1% Tween-20 (PBST).
The secondary antibody solution was removed by aspiration and the wells were washed three consecutive times with PB ST.
The SYM11 signal and the DRAQ5 signal were quantified using a Li-Cor Odyssey machine reading at […], respectively. The SYM11/DRAQ5 ratio was used to calculate the inhibition of Symmetric Dimethyl Arginine as percent of DMSO control.

[3] = HCT116 homozygous MTAP knockout cells, 4 days of treatment, SYM11/DRAQ5 ratio; read-out: In-cell-Western (SYM11) HCT116 MTAP_KO IC50
[4] = Homo sapiens, HCT-116, 96 h, HCT116 homozygous MTAP knockout cells, 4 days of treatment, SYM11/DRAQ5 ratio; read-out: In-cell-Western (SYM11) HCT116 MTAP_KO IC50
[5] = read-out: In-cell-Western (SYM11) HCT116 MTAP_KO IC50; HCT116 homozygous MTAP knockout cells, 4 days of treatment, SYM11/DRAQ5 ratio

SMILES | IC50 [1] [nM] | IC50 [2, 3] [nM] | IC50 [2, 4] [nM] | IC50 ([1]; Homo sapiens, HCT-116, 240 h) [nM] | IC50 [2, 5] [nM]
CCOc1cc(-c2cnn(C)c2-c2c(F)cc3ccccc3c2C#N)cc2c(CN)n[nH]c(=O)c12 (single isomer, unassigned) [Example 16-3, 2-[4-[4-(aminomethyl)-8-ethoxy-1-oxo-2H-phthalazin-6-yl]-2-methyl-pyrazol-3-yl]-3-fluoro-naphthalene-1-carbonitrile] | 84 | – | 15 | – | –
Cn1ncc(-c2ccc3c(=O)[nH]nc(CN)c3c2)c1-c1c(F)c(Cl)cc(OC2CC2)c1C#N (single isomer, unassigned) [Example 16-7, 2-(4-(4-(aminomethyl)-1-oxo-1,2-dihydrophthalazin-6-yl)-1-methyl-1H-pyrazol-5-yl)-4-chloro-6-cyclopropoxy-3-fluorobenzonitrile] | 4000 | – | – | – | 1000
Cn1ncc(-c2ccc3c(=O)[nH]nc(CN)c3c2)c1-c1c(F)c(Cl)cc(OC2CC2)c1C#N (single isomer, unassigned) [Example 16-8, 2-(4-(4-(aminomethyl)-1-oxo-1,2-dihydrophthalazin-6-yl)-1-methyl-1H-pyrazol-5-yl)-4-chloro-6-cyclopropoxy-3-fluorobenzonitrile] | 24 | – | – | – | 0.8
Cn1ncc(-c2ccc3c(=O)[nH]nc(CN)c3c2)c1-c1ccc(Cl)c(OC2CC2)c1C#N [Example 4-208, 6-(4-(4-(aminomethyl)-1-oxo-1,2-dihydrophthalazin-6-yl)-1-methyl-1H-pyrazol-5-yl)-3-chloro-2-cyclopropoxybenzonitrile] | – | – | 11 | 124 | –
Cn1ncc(-c2ccc3c(=O)[nH]nc(CN)c3c2)c1-c1cn(-c2ccccc2)nc1Cl [Example 4-213, 4-(aminomethyl)-6-(3′-chloro-2-methyl-1′-phenyl-1′H,2H-[3,4′-bipyrazol]-4-yl)phthalazin-1(2H)-one] | – | – | 88 | 1680 | –
Cn1ncc(-c2ccc3c(=O)[nH]nc(CN)c3c2)c1-c1cn(-c2ccccc2)nc1C#N [Example 4-214, 4-(4-(aminomethyl)-1-oxo-1,2-dihydrophthalazin-6-yl)-2-methyl-11-phenyl-1′H,2H-[3,4′-bipyrazole]-3′-carbonitrile] | – | – | > 10000 | 4400 | –
Cn1ncc(-c2ccc3c(=O)[nH]nc(CN)c3c2)c1-c1ccc2cccc(F)c2c1C#N [Example 4-234, 2-(4-(4-(aminomethyl)-1-oxo-1,2-dihydrophthalazin-6-yl)-1-methyl-1H-pyrazol-5-yl)-8-fluoro-1-naphthonitrile] | – | – | 129 | 206 | –
N#CCc1ccccc1Oc1cncc(-c2ccc3c(=O)[nH]nc(CN)c3c2)c1 [Example 4-235, 2-(2-((5-(4-(aminomethyl)-1-oxo-1,2-dihydrophthalazin-6-yl)pyridin-3-yl)oxy)phenyl)acetonitrile] | – | – | > 1000 | > 10000 | –
Cn1ncc(-c2ccc3c(=O)[nH]nc(CN)c3c2)c1-c1ccc2ncsc2c1C#N [Example 4-237, 6-(4-(4-(aminomethyl)-1-oxo-1,2-dihydrophthalazin-6-yl)-1-methyl-1H-pyrazol-5-yl)benzo[d]thiazole-7-carbonitrile] | – | – | 136 | 1040 | –
Cn1ncc(-c2ccc3c(=O)[nH]nc(CN)c3c2)c1-c1cccn2cncc12 [Example 4-239, 4-(aminomethyl)-6-(5-(imidazo[1,5-a]pyridin-8-yl)-1-methyl-1H-pyrazol-4-yl)phthalazin-1(2H)-one] | – | – | > 1000 | > 10000 | –

More lines, main results first:

IC50 [1] [nM] | IC50 [2, 3] [nM] | IC50 [2, 4] [nM] | IC50 ([1]; Homo sapiens, HCT-116, 240 h) [nM] | SMILES | IC50 [2, 5] [nM]
4180 | > 1000 | – | – | CC(N)c1n[nH]c(=O)c2ccc(-c3cnn(C)c3-c3ccc4ccccc4c3C#N)cc12 (single isomer, unassigned) [Example 9-4, 2-[4-[4-(1-aminoethyl)-1-oxo-2H-phthalazin-6-yl]-2-methyl-pyrazol-3-yl]naphthalene-1-carbonitrile] | –
15 | 12 | – | – | CCOc1cc(-c2cnn(C)c2-c2c(F)cc3ccccc3c2C#N)cc2c(CN)n[nH]c(=O)c12 (single isomer, unassigned) [Example 16-4, 2-[4-[4-(aminomethyl)-8-ethoxy-1-oxo-2H-phthalazin-6-yl]-2-methyl-pyrazol-3-yl]-3-fluoro-naphthalene-1-carbonitrile] | –
– | – | 197 | 2150 | Cn1ncc(-c2ccc3c(=O)[nH]nc(CN)c3c2)c1-c1cnn(Cc2ccccc2)c1C#N [Example 4-211, 4-(4-(aminomethyl)-1-oxo-1,2-dihydrophthalazin-6-yl)-1′-benzyl-2-methyl-1′H,2H-[3,4′-bipyrazole]-5′-carbonitrile] | –
– | – | > 10000 | > 10000 | Cn1ncc(-c2ccc3c(=O)[nH]nc(CN)c3c2)c1-c1cn(Cc2ccccc2)nc1C#N [Example 4-212, 4-(4-(aminomethyl)-1-oxo-1,2-dihydrophthalazin-6-yl)-1′-benzyl-2-methyl-1′H,2H-[3,4′-bipyrazole]-3′-carbonitrile] | –
– | – | 83 | 134 | Cn1ncc(-c2ccc3c(=O)[nH]nc(CN)c3c2)c1-c1ccc2cc(F)ccc2c1C#N [Example 4-216, 2-(4-(4-(aminomethyl)-1-oxo-1,2-dihydrophthalazin-6-yl)-1-methyl-1H-pyrazol-5-yl)-6-fluoro-1-naphthonitrile] | –
– | – | 140 | 134 | Cn1ncc(-c2ccc3c(=O)[nH]nc(CN)c3c2)c1-c1cc2ccccc2c(Cl)c1C#N [Example 4-218, 3-(4-(4-(aminomethyl)-1-oxo-1,2-dihydrophthalazin-6-yl)-1-methyl-1H-pyrazol-5-yl)-1-chloro-2-naphthonitrile] | –
– | – | > 1000 | 3610 | Cn1nc(Cl)c(-c2c(-c3ccc4c(=O)[nH]nc(CN)c4c3)cnn2C)c1C#N [Example 4-219, 4-(4-(aminomethyl)-1-oxo-1,2-dihydrophthalazin-6-yl)-3′-chloro-1′,2-dimethyl-1′H,2H-[3,4′-bipyrazole]-5′-carbonitrile] | –
– | – | 10 | 191 | Cn1ncc(-c2ccc3c(=O)[nH]nc(CN)c3c2)c1-c1ccc2c(c1C#N)OCCC2 [Example 4-226, 7-(4-(4-(aminomethyl)-1-oxo-1,2-dihydrophthalazin-6-yl)-1-methyl-1H-pyrazol-5-yl)chromane-8-carbonitrile] | –
– | – | > 1000 | 2370 | Cn1ncc(-c2ccc3c(=O)[nH]nc(CN)c3c2)c1-c1cc2ccccn2c1C#N [Example 4-227, 2-(4-(4-(aminomethyl)-1-oxo-1,2-dihydrophthalazin-6-yl)-1-methyl-1H-pyrazol-5-yl)indolizine-3-carbonitrile] | –
– | – | > 1000 | > 10000 | N#Cc1c(-c2sncc2-c2ccc3c(=O)[nH]nc(CN)c3c2)ccc2ccccc12 [Example 4-228, 2-(4-(4-(aminomethyl)-1-oxo-1,2-dihydrophthalazin-6-yl)isothiazol-5-yl)-1-naphthonitrile] | –
– | – | 148 | 4770 | Cn1ncc(-c2ccc3c(=O)[nH]nc(CN)c3c2)c1-c1cn(Cc2ccccc2C#N)nc1Cl [Example 4-232, 2-((4-(4-(aminomethyl)-1-oxo-1,2-dihydrophthalazin-6-yl)-3′-chloro-2-methyl-1′H,2H-[3,4′-bipyrazol]-1′-yl)methyl)benzonitrile] | –
– | – | > 1000 | 4730 | Cn1ncc(-c2ccc3c(=O)[nH]nc(CN)c3c2)c1-c1cccc2cncn12 [Example 4-233, 4-(aminomethyl)-6-(5-(imidazo[1,5-a]pyridin-5-yl)-1-methyl-1H-pyrazol-4-yl)phthalazin-1(2H)-one] | –
– | – | > 1000 | > 1000 | Cn1ncc(-c2ccc3c(=O)[nH]nc(CN)c3c2)c1-c1cnn(Cc2cccn(C)c2=O)c1Cl [Example 4-236, 4-(aminomethyl)-6-(5′-chloro-2-methyl-1′-((1-methyl-2-oxo-1,2-dihydropyridin-3-yl)methyl)-1′H,2H-[3,4′-bipyrazol]-4-yl)phthalazin-1(2H)-one] | –
